Here are results for one compound from EP0417803A1, “[N-(gamma-glutamyl)glycyl] alanine derivatives” (SANDOZ LTD., priority 1989, dated 1991).

The data set in a line: Induction of endotoxin shock in the mouse. To be noted: in vivo, read-out: LD₅₀. The source says:
The test method is essentially as described in GB 2'179'945 A and DE 37'30'905.

For `CCCCCCC(=O)N[C@H](CCC(=O)N[C@H](/C=C/CC(O)C(=O)OCCCC)C(=O)N[C@@H](C)C(=O)OCC)C(=O)OCc1ccccc1` (stereo partly drawn) [Example 1, {N-[N′-Heptanoyl-(R)-γ-glutamyl-(α-benzylester)]-(R)-α-[2-(RS)-hydroxypent-4-enoic acid butyl ester-5-yl]glycyl]-(S)-alanine ethyl ester], the LD50 was determined as 12 mg/kg.
